Measurements: patent US20100098690A1, “PHARMACEUTICAL COMPOSITION” (KYOWA HAKKO KIRIN CO., LTD., priority 2007, published 2010)

Columns and labels:
[1] = system: human multiple myeloma cell line (NCI-H929); test: In vitro cell growth inhibition assay (WST-1) with isobologram analysis of combination effect; type: cell-based; conditions: combined with the test compound (hydrochloride of Compound 22), 72 hours, isobologram method
Procedure: (§1) Measurement of the cell growth inhibition rate of the test compound and a combined compound on a human multiple myeloma cell line (NCI-H929), a human non-small-cell lung cancer cell line (PC-9), a human breast cancer cell line (BT-474), a human renal cancer cell line (VMRC-RCZ), a human chronic myeloid leukemia cell line (K-562) and a human acute myeloid leukemia cell line (MOLM-13) was carried out in the following manner.
(§2) For the culture of NCI-H929, Roswell Park Memorial Institute's Medium (RPMI) 1640 medium (Invitrogen) containing 10% fetal calf serum (FCS, Invitrogen), 10 mmol/L HEPES (Invitrogen), 1 mmol/L sodium pyruvate (Invitrogen), 4.5 g/L glucose (Sigma-Aldrich) and 50 μmol/L 2-mercaptoethanol (Invitrogen) was used. For the culture of PC-9, RPMI1640 medium containing 10% FCS was used. For the culture of BT-474, Dulbecco's Modified Eagle Medium (DMEM) (Invitrogen) containing 10% FCS, 1 mmol/L sodium pyruvate, 1.2 mmol/L oxalacetic acid (Sigma-Aldrich), 0.01 mg/mL insulin (Sigma-Aldrich), 10% NCTC-135 medium (Sigma-Aldrich), 4 mmol/L L-glutamine (Invitrogen), 1.5 g/L sodium hydrogencarbonate (Invitrogen) and 4.5 g/L glucose was used.
(§3) NCI-H929 cells were suspended to 12.5×10^4 cells/mL with culture medium (PC-9, 0.625×10^4 cells/mL; BT-474, 12.5×10^4 cells/mL; VMRC-RCZ, 2.5×10^4 cells/mL; MOLM-13, 12.5×10^4 cells/mL; K-562, 6.25×10^4 cells/mL), and the cell suspensions were seeded to the wells of 96-well U-bottom plates (Nalge Nunc International) in an amount of 80 μL/well, followed by incubation in a 5% CO2 incubator at 37° C. for 5 hours (PC-9, BT-474 and VMRC-RCZ, 24 hours; MOLM-13 and K-562, 4 hours).
(§4) The solutions of the test compound and the combined compound diluted with culture medium were added to the plates in an amount of 10 μL/well, respectively, followed by further incubation in a 5% CO2 incubator at 37° C. for 72 hours. WST-1 reagent {4-[3-(4-iodophenyl)-2-(4-nitrophenyl)-2H-5-tetrazolio]-1,3-benzene disulfonate sodium salt} (Roche Diagnostics) was added to the wells in an amount of 10 μL/well and the plates were incubated in a CO2 incubator for 2 hours at 37° C. The absorbance at 450 nm (control wavelength: 655 nm) was measured using a microplate spectrophotometer SPECTRA max 340PC (Molecular Devices). Separately, the solvent used for preparation of each compound solution alone was added to the wells, and the absorbance was measured in the same manner as above after 72-hour incubation carried out in the same manner as above and also immediately after the addition of the solvent. The cell growth inhibition rate on the cells in the compound-added groups (groups treated with the test compound alone, the combined compound alone, or both compounds) was calculated according to the following equation.
(§5) The combined effect was analyzed using the isobologram method [International Journal of Radiation Oncology, Biology, Physics, Vol. 5, p. 85 (1979)]. Judgment of the efficacy of combination therapy was carried out according to the method described in International Journal of Radiation Oncology, Biology, Physics, Vol. 5, p. 85 (1979), Ibid., Vol. 5, p. 1145 (1979), etc.

[2] = system: human renal cancer cell line (VMRC-RCZ); test: as above; type: cell-based; conditions: combined with the test compound (hydrochloride of Compound 22), 72 hours, isobologram method
Procedure: as §1
For the culture of VMRC-RCZ, Minimum Essential Medium (MEM) (Invitrogen) containing 10% FCS, 0.1 mmol/L Non-Essential Amino Acids (NEAA, Invitrogen), 4 mmol/L HEPES, 2 mmol/L L-glutamine and 1.5 g/L sodium hydrogencarbonate was used. […]
The solutions of the test compound and the combined compound diluted with culture medium were added to the plates in an amount of 10 μL/well, respectively, followed by further incubation in a 5% CO2 incubator at 37° C. for 72 hours. […] The absorbance at 450 nm (control wavelength: 655 nm) was measured using a microplate spectrophotometer SPECTRA max 340PC (Molecular Devices). Separately, the solvent used for preparation of each compound solution alone was added to the wells, and the absorbance was measured in the same manner as above after 72-hour incubation carried out in the same manner as above and also immediately after the addition of the solvent. […]

[3] = system: human acute myeloid leukemia cell line (MOLM-13); test: as above; type: cell-based; conditions: combined with the test compound (hydrochloride of Compound 22), 72 hours, isobologram method
Procedure: as §1
(§6) For the culture of VMRC-RCZ, Minimum Essential Medium (MEM) (Invitrogen) containing 10% FCS, 0.1 mmol/L Non-Essential Amino Acids (NEAA, Invitrogen), 4 mmol/L HEPES, 2 mmol/L L-glutamine and 1.5 g/L sodium hydrogencarbonate was used. For the culture of K-562, Iscove's Modified Dulbecco's Medium (IMDM) (Invitrogen) containing 10% FCS was used. For the culture of MOLM-13, RPMI1640 medium containing 10% FCS was used.
as §3, with “hours). […]” for “hours).”

[4] = system: human chronic myeloid leukemia cell line (K-562); test: as above; type: cell-based; conditions: combined with the test compound (hydrochloride of Compound 22), 72 hours, isobologram method
Procedure: as §1, §6
as §3, with “hours). […]” for “hours).”

[5] = system: human breast cancer cell line (BT-474); test: as above; type: cell-based; conditions: combined with the test compound (hydrochloride of Compound 22), 72 hours, isobologram method
Procedure: as §1, §3
The solutions of the test compound and the combined compound diluted with culture medium were added to the plates in an amount of 10 μL/well, respectively, followed by further incubation in a 5% CO2 incubator at 37° C. for 72 hours. WST-1 reagent {4-[3-(4-iodophenyl)-2-(4-nitrophenyl)-2H-5-tetrazolio]-1,3-benzene disulfonate sodium salt} (Roche Diagnostics) was added to the wells in an amount of 10 μL/well and the plates were incubated in a CO2 incubator for 2 hours at 37° C.

[6] = system: human multiple myeloma NCI-H929 cells; test: Antitumor effect in a mouse model transplanted with human multiple myeloma NCI-H929 cells (combination with melphalan); type: in vivo, Fox C.B-17/Icr-scidJcl mice; conditions: day 14; test compound 50 mg/kg i.v. on days 0, 3, 7 and 10; melphalan 4 mg/kg i.v. on day 0
Procedure: On the day before the transplantation of cancer cells, 0.3 mg/mouse of an anti-asialo GM1 antibody (ca. 10 mg protein/1 mL vial) (Wako Pure Chemical Industries, Ltd.) was intraperitoneally administered to Fox C.B-17/Icr-scidJcl mice (Clea Japan, Inc.). NCI-H929 cells were cultured in RPMI1640 medium containing 10% fetal calf serum (FCS) in a 5% CO2 incubator at 37° C. and then transplanted into the abdominal subcutaneous tissue of the mice in an amount of 1×10^7 cells/mouse.
The day was defined as day 0 of the administration test, and administration was started.
The test compound was dissolved in physiological saline (Otsuka Pharmaceutical Co., Ltd.) at a concentration of 5 mg/mL and intravenously administered from the caudal vein in a dose of 0.01 mL/g body weight of mouse (50 mg/kg) once a day on days 0, 3, 7 and 10.
Melphalan was suspended in physiological saline (Otsuka Pharmaceutical Co., Ltd.) at a concentration of 0.4 mg/mL and intravenously administered from the caudal vein in a dose of 0.01 mL/g body weight of mouse (4 mg/kg) once a day on day 0. • A. Negative control group (Control): neither test compound nor melphalan administered • B. Test compound alone group: 50 mg/kg (once a day/administered on days 0, 3, 7 and 10) • C. […]
On and after day 0, the tumor volume was measured twice a week. […]

[7] = system: human multiple myeloma NCI-H929 cells; test: Antitumor effect in a mouse model transplanted with human multiple myeloma NCI-H929 cells (combination with bortezomib); type: in vivo, Fox C.B-17/Icr-scidJcl mice; conditions: day 14; test compound 50 mg/kg i.v. and bortezomib 1 mg/kg i.v., once a day on days 0, 3, 7 and 10
Procedure: On the day before the transplantation of cancer cells, 0.3 mg/mouse of an anti-asialo GM1 antibody (ca. 10 mg protein/1 mL vial) (Wako Pure Chemical Industries, Ltd.) was intraperitoneally administered to Fox C.B-17/Icr-scidJcl mice (Clea Japan, Inc.). NCI-H929 cells were cultured in RPMI1640 medium containing 10% fetal calf serum (FCS) in a 5% CO2 incubator at 37° C. and then transplanted into the abdominal subcutaneous tissue of the mice in an amount of 1×10^7 cells/mouse. Ten days after the transplantation, the longer diameter and shorter diameter of the tumor subcutaneously grown were measured with slide calipers, and the tumor volume was calculated according to the following equation.
(§7) At the same time, the body weight of each mouse was measured, and the mice were divided into the following groups of 5 mice each so that the mean tumor volume and the mean body weight become uniform. The day was defined as day 0 of the administration test, and administration was started.
The test compound was dissolved in physiological saline (Otsuka Pharmaceutical Co., Ltd.) at a concentration of 5 mg/mL and intravenously administered from the caudal vein in a dose of 0.01 mL/g body weight of mouse (50 mg/kg) once a day on days 0, 3, 7 and 10. […]

[8] = system: human non-small-cell lung cancer cell line (PC-9); test: In vitro cell growth inhibition assay (WST-1) with isobologram analysis of combination effect; type: cell-based; conditions: combined with the test compound (hydrochloride of Compound 22), 72 hours, isobologram method
Procedure: as §1, §2, §3, §4, §5

[9] = system: human lung cancer NCI-H596 cells; test: Antitumor effect in a mouse model transplanted with human lung cancer NCI-H596 cells; type: in vivo, BALB/cAJcl-nu mice; conditions: day 11; test compound 100 mg/kg i.v. twice a day x 5 days; gefitinib 100 mg/kg oral once a day x 5 days
Procedure: NCI-H596 cells were cultured in RPMI1640 medium containing 10% fetal calf serum (FCS) in a 5% CO2 incubator at 37° C. and then transplanted into the abdominal subcutaneous tissue of BALB/cAJcl-nu mice (Clea Japan, Inc.) in an amount of 1×10^7 cells/mouse. From the mice in which tumor grew, the tumor was excised and the tumor tissue was cut into ca. 8 mm^3 tissue pieces and then transplanted into the abdominal subcutaneous tissue of BALB/cAJcl-nu mice (Clea Japan, Inc.) using a trocar. Seventeen days after the transplantation, the longer diameter and shorter diameter of the subcutaneous tumor were measured with slide calipers, and the tumor volume was calculated according to the following equation.
as §7
(§8) The test compound was dissolved in physiological saline (Otsuka Pharmaceutical Co., Ltd.) at a concentration of 10 mg/mL and intravenously administered from the caudal vein in a dose of 0.01 mL/g body weight of mouse (100 mg/kg) twice a day for consecutive days from day 0 to day 4. […]

[10] = system: human breast cancer KPL-4 cells; test: Antitumor effect in a mouse model transplanted with human breast cancer KPL-4 cells; type: in vivo, BALB/cAJcl-nu mice; conditions: day 10; test compound 100 mg/kg i.v. twice a day x 5 days; paclitaxel 25 mg/kg i.v. days 0 and 3; trastuzumab 50 mg/kg i.v. days 0, 3, 7, 10, 14 and 17
Procedure: KPL-4 cells were cultured in DMEM containing 10% fetal calf serum (FCS) in a 5% CO2 incubator at 37° C. and then transplanted into the abdominal subcutaneous tissue of BALB/cAJcl-nu mice (Clea Japan, Inc.) in an amount of 1×10^7 cells/mouse. From the mice in which tumor grew, the tumor was excised and the tumor tissue was cut into ca. 8 mm^3 tissue pieces and then transplanted into the abdominal subcutaneous tissue of BALB/cAJcl-nu mice (Clea Japan, Inc.) using a trocar. Eighteen days after the transplantation, the longer diameter and shorter diameter of the subcutaneous tumor were measured with slide calipers, and the tumor volume was calculated according to the following equation.
as §7, §8

SMILES	Combination effect of test compound and each compound [1]	Combination effect of test compound and each compound [8]	other results
O=C(CCCCCCC(=O)Nc1ccccc1)NO [Vorinostat, vorinostat]	Sub-additive		
CNC(=O)c1cc(Oc2ccc(NC(=O)Nc3ccc(Cl)c(C(F)(F)F)c3)cc2)ccn1 [Sorafenib, sorafenib]			Combination effect of test compound and each compound [2]: Supra-additive
Nc1ccn([C@@H]2O[C@H](CO)[C@@H](O)[C@@H]2O)c(=O)n1 [Cytarabine, cytarabine]			Combination effect of test compound and each compound [3]: Envelope of additivity
Cc1ccc(NC(=O)c2ccc(CN3CCN(C)CC3)cc2)cc1Nc1nccc(-c2cccnc2)n1 [Imatinib, imatinib]			Combination effect of test compound and each compound [4]: Sub-additive
CS(=O)(=O)CCNCc1ccc(-c2ccc3ncnc(Nc4ccc(OCc5cccc(F)c5)c(Cl)c4)c3c2)o1 [Lapatinib, lapatinib]			Combination effect of test compound and each compound [5]: Envelope of additivity
N[C@@H](Cc1ccc(N(CCCl)CCCl)cc1)C(=O)O [Melphalan, melphalan]	Envelope of additivity		T/C (V/V0 of each group divided by V/V0 of the negative control group) [6]: 0.63
Nc1cccc2c1CN(C1CCC(=O)NC1=O)C2=O (stereo not shown) [Lenalidomide, lenalidomide]	Envelope of additivity		
CC(C)C[C@H](NC(=O)[C@H](Cc1ccccc1)NC(=O)c1cnccn1)B(O)O [Bortezomib, bortezomib]	Envelope of additivity		T/C (V/V0 of each group divided by V/V0 of the negative control group) [7]: 0.45
COc1cc2ncnc(Nc3ccc(F)c(Cl)c3)c2cc1OCCCN1CCOCC1 [Gefitinib, gefitinib]		Envelope of additivity	T/C (V/V0 of each group divided by V/V0 of the negative control group) [9]: 0.74
CC(=O)O[C@H]1C(=O)[C@@]2(C)[C@H]([C@H](OC(=O)c3ccccc3)[C@]3(O)C[C@H](OC(=O)[C@H](O)[C@@H](NC(=O)c4ccccc4)c4ccccc4)C(C)=C1C3(C)C)[C@]1(OC(C)=O)CO[C@@H]1C[C@@H]2O [Paclitaxel, paclitaxel]		Envelope of additivity	T/C (V/V0 of each group divided by V/V0 of the negative control group) [10]: 0.094
CC(=O)O[C@@]12CO[C@@H]1C[C@H](O)[C@@]1(C)C(=O)[C@H](O)C3=C(C)[C@@H](OC(=O)[C@H](O)[C@@H](NC(=O)OC(C)(C)C)c4ccccc4)C[C@@](O)([C@@H](OC(=O)c4ccccc4)[C@H]21)C3(C)C [Docetaxel, docetaxel]		Envelope of additivity	
C#Cc1cccc(Nc2ncnc3cc(OCCOC)c(OCCOC)cc23)c1 [Erlotinib, erlotinib]		Sub-additive	
